Patent US9850300B2, “Compositions and methods relating to inhibiting cancer cell growth and/or proliferation” (The Regents of the University of Michigan, priority 2013, dated 2017)
“Also recorded” adds a separate entry of the source.

B1: EGFL6^RGE: EGFL6 protein with an RGD-to-RGE mutation of the integrin binding motif (protein)
chain: NAASARHHGLLASARQPGVCHYGTKLACCYGWRRNSKGVCEATCEPGCKFGECVGPNKCRCFPGYTGKTCSQDVNECGMKPRPCQHRCVNTHGSYKCFCLSGHMLMPDATCVNSRTCAMINCQYSCEDTEEGPQCLCPSSGLRLAPNGRDCLDIDECASGKVICPYNRRCVNTFGSYYCKCHIGFELQYISGRYDCIDINECTMDSHTCSHHANCFNTQGSFKCKCKQGYKGNGLRCSAIPENSVKEVLRAPGTIKDRIKKLLAHKNSMKKKAKIKNVTPEPTRTPTPKVNLQPFNYEEIVSRGGNSHGGKKGNEEKMKEGLEDEKREEKALKNDIEERSLRGEVFFPKVNEAGEFGLILVQRKALTSKLEHKDLNISVDCSFNHGICDWKQDREDDFDWNPADRDNAIGFYMAVPALAGHKKDIGRLKLLLPDLQPQSNFCLLFDYRLAGDKVGKLRVFVKNSNNALAWEKTTSEDEKWKTGKIQLYQGTDATKSIIFEAERGKGKTGEIAVDGVLLVSGLCPDSLLSVDD

What was measured:
Type in all cases: cell-based
SKOV3 cells = assay: EGFL6-mediated cell proliferation, RGE mutation or Echistatin pretreatment; conditions: for proliferative effect on cancer cells: RGD-to-RGE mutated EGFL6 vs EGFL6, SKOV3
Experimental: To determine if EGFL6 signaling on cancer cells is via integrin bind, an EGFL6 protein with an […] mutation (EGFL6^RGE) was generated. […] Similarly, pretreatment of SKOV3 cells with the integrin β1/β3 inhibitor Echistatin blocked both EGFL6-mediated cancer cell proliferation and the decrease in ALDH^+ percentage (FIG. 4B).
(§1) SKOV3, A2008, and A2780 were maintained in RPMI-1640, supplemented with 10% FBS with 1% Penicillin/Streptomycin, and cultured in humidified atmosphere of 5% CO2 at 37° C. For all in vitro cell culture experiments, isolated cells were allow to recover overnight following FACS, prior to treatment. Infantile Hemangioma Stem cells were maintained in EBM-2 medium with growth factor supplement cocktails in culture plates coated with fibronectin. For Echistatin and EGFL6 treatment, cells were pretreated with Echistatin (Sigma, 100 nM) for 24 hours prior to EGFL6 treatment. All transfections were performed using FuGene6 reagent (Promega) per company protocol.

[1] = test system: ALDH+ CSCs in SKOV3 cells; assay: ALDH+ cell percentage and number (ALDEFLUOR FACS); conditions: Echistatin 100 nM pretreatment 24 hours or EGFL6 antibody 5 μg/ml, then EGFL6
Text: It has been shown that aldehyde dehydrogenase enzymatic activity (ALDH) is an excellent marker of ovarian CSCs in SKOV3 cells and primary patient samples (see, e.g., Silva, I. A., et al. Cancer Res (2011); Landen, C. N., Jr., et al. Mol Cancer Ther 9, 3186-3199 (2010); Steg, A. D., et al. Clin Cancer Res 18, 869-881 (2012); Kryczek, I., et al. Int J Cancer 130, 29-39 (2012); Deng, S., et al. PLoS ONE 5, e10277 (2010)). The impact of EGFL6 treatment on the percentage of ALDH^+ CSCs in vitro was next assessed. […] However, given the increase in total cell numbers, the absolute ALDH^+ CSC number remained unchanged (FIG. 3Aiii). […] Human ovarian cancer ascites cells were also treated with EGFL6 in a tumor sphere assay. Once again, treatment with EGLF6 was associated with a reduction in ALDH^+ cell percentages in tumor spheres (FIG. 3B).
as §1
FACS assay was performed as previously described (see, e.g., Silva, I. A., et al. Cancer Res (2011)). Briefly, SKOV3 cells or primary ovarian tumor/ascetics cells were stained for ALDH using ALDEFLUOR kit per company protocol (Stem Cell Technologies). DAPI staining was used to exclude non-viable cells. For FACS cell sorting, equal number of ALDH and ALDH^(−) cells were collected for subsequent experiments.
EGFL6 monoclonal antibody producing hybridoma cells were maintained in RPMI medium supplemented with 10% FBS. For antibody purification, the cells were cultured in reduced FBS (5%). […]

[2] = test system: phosphorylation of SHP2, ERK, FAK and SRC in SKOV3 cells; assay: Western blot of EGFL6 mediated signal activation; conditions: for p-SHP2 levels: treatment of ALDH+ SKOV3 cells
Experimental: Lastly, EGFL6 mediated signal activation was evaluated. Integrin signaling has been reported to induce the […] of FAK, SRC and SHP2 among others. […] Phosphorylation of all of these proteins could be blocked with Echistatin.
Cellular signaling changes associated with EGFL6 was next examined. […] EGFL6 treatment was associated with increased p-SHP2 levels specifically in ALDH^+ cells (FIG. 4Ei). […] SHP2 phosphorylation could be blocked with Echistatin (FIG. 4Eiii) or an EGFL6-blocking antibody. SHP2 phosphorylation was associated with increased p-ERK levels (4Ei-iii).
as §1
EGFL6 monoclonal antibody producing hybridoma cells were maintained in RPMI medium supplemented with 10% FBS. For antibody purification, the cells were cultured in reduced FBS (5%). Culture supernatant was collected and cell debris was removed by centrifugation. EGFL6 antibody was pulled down using Protein G Agarose heeds, Fast Flow (Millipore), washed and eluded with 50 mM glycine PH.2.7. Antibody solution was immediately neutralized to PH 7.2-7.4 with Tris (Ph 9.0, final concentration 25 mM). NaCl was added to final concentration of 150 mM. EGFL6 antibody was applied at 5 μg/ml for in vitro cell treatment and 50 μg/mouse for in vivo treatment.

Row | Molecule | blockade of EGFL6-mediated cancer cell proliferation (SKOV3 cells; Echistatin pretreatment, SKOV3) | blockade of EGFL6-mediated reduction in ALDH+ cell percentages [1] | blockade of EGFL6-induced phosphorylation of SHP2, FAK and SRC ([2]; Echistatin pretreatment) | blockade of EGFL6-mediated ERK phosphorylation ([2]; with EGFL6 treatment) | blockade of EGFL6-mediated SHP2 phosphorylation ([2]; with EGFL6 treatment) | proliferative effect on cancer cells (SKOV3 cells) | proliferative effect on cancer cells (SKOV3 cells; listed as EGFL6-RGE mutant) | p-SHP2 levels [2] | p-SHP2 levels ([2]; listed as EGFL6-RGE mutant) | p-ERK levels ([2]; treatment of ALDH+ and ALDH(−) cells)
1 | Echistatin [reference compound] | blocked | inhibited the effect of EGFL6; also recorded: blocked; also recorded: inhibits | blocked | suppressed | blocked; also recorded: suppressed | – | – | – | – | –
2 | B1 | – | – | – | – | – | eliminated the proliferative effects | suppressed | did not increase | does not increase | does not increase
